{"source": "paper PMC7227612", "about": "(Clinical cancer research : an official journal of the …, 2009)", "key": {"[1]": {"system": "GSK3β", "assay": "Inhibition of GSK3β phosphorylation and activity in glioma cells in vitro", "assay_type": "cell-based", "settings": "Supplementary Fig. S1, concentration dependent"}, "[2]": {"assay": "Steady-state plasma pharmacokinetics, group B", "assay_type": "in vivo, human", "settings": "for Cmax / Tmax: human, plasma, oral; for Cmax: Cmax,ss"}, "[3]": {"system": "glioma cells", "assay": "Cytotoxic activity against glioma cells in vitro", "assay_type": "cell-based", "settings": "Supplementary Fig. S1, concentration dependent"}, "[4]": {"system": "phosphorylated GSK3β (pGSK3β)", "assay": "pGSK3β in patient peripheral blood mononuclear cells", "assay_type": "in vivo, human"}, "[5]": {"system": "recurrent malignant glioma", "assay": "Tumor response", "assay_type": "in vivo, human"}, "[6]": {"assay": "Toxicity and dose limiting toxicity", "assay_type": "in vivo"}, "[7]": {"assay": "Steady-state plasma pharmacokinetics, group A", "assay_type": "in vivo, human", "settings": "for Cav,ss: geometric mean (%CV); for Cmax / Tmax: human, plasma, oral"}, "[8]": {"settings": "Group B, 500 mg twice daily, Patient 2"}, "[9]": {"settings": "Group B, 1,000 mg daily, Patient 1"}, "[10]": {"settings": "Group B, 1,000 mg daily, Patient 2"}, "[11]": {"settings": "500 mg, Group B, 500 mg twice daily, Patient 2"}, "[12]": {"settings": "1000 mg daily, Group B, 1,000 mg daily, Patient 1"}, "[13]": {"settings": "1000 mg daily, Group B, 1,000 mg daily, Patient 2"}}, "note": "Marks after values point to notes of the source that are not given here.", "data": [{"smiles": "Cn1cc(C2=C(c3cn(C4CCN(Cc5ccccn5)CC4)c4ccccc34)C(=O)NC2=O)c2ccccc21", "note": "[Enzastaurin]", "values": [{"measurement": "Phosphorylation and activity of GSK3β", "setting": "[1]", "value": "inhibits"}, {"measurement": "CL/F", "setting": "[2]; [8]", "value": 27, "unit": "L/h"}, {"measurement": "Cav,ss", "setting": "[2]; [8]", "value": "3,050 nmol/L"}, {"measurement": "CL/F", "setting": "[2]; [9]", "value": 60, "unit": "L/h"}, {"measurement": "Cav,ss", "setting": "[2]; [9]", "value": "1,340 nmol/L"}, {"measurement": "CL/F", "setting": "[2]; [10]", "value": 60, "unit": "L/h"}, {"measurement": "Cav,ss", "setting": "[2]; [10]", "value": "1,350 nmol/L"}, {"measurement": "Cmax", "setting": "[2]; [11]", "value": 4090, "unit": "nM"}, {"measurement": "Tmax", "setting": "[2]; [11]", "value": 4, "unit": "h"}, {"measurement": "Cmax", "setting": "[2]; [12]", "value": 3010, "unit": "nM"}, {"measurement": "Cmax", "setting": "[2]; [13]", "value": 2730, "unit": "nM"}, {"measurement": "Tmax", "setting": "[2]; [12]", "value": 4, "unit": "h"}, {"measurement": "Tmax", "setting": "[2]; [13]", "value": 2, "unit": "h"}, {"measurement": "Cytotoxicity", "setting": "[3]", "value": "direct cytotoxic activity"}, {"measurement": "pGSK3β levels at steady state vs baseline", "setting": "[4]; five patients who achieved disease control", "value": "decreased from baseline"}, {"measurement": "pGSK3β at steady state vs baseline", "setting": "[4]; one patient with progressive disease, after the first 3 weeks of therapy", "value": "increased"}, {"measurement": "Kinetics of pGSK3β in peripheral blood mononuclear cells after administration", "setting": "[4]; two patients, Fig. 3B", "value": "decrease in a time dependent manner"}, {"measurement": "Complete response (patients)", "setting": "[5]; 19 patients evaluable", "value": 1}, {"measurement": "Partial response (patients)", "setting": "[5]; 19 patients evaluable", "value": 1}, {"measurement": "Objective responses", "setting": "[5]; 19 patients evaluable for radiographic response", "value": 11, "unit": "%"}, {"measurement": "Median overall survival", "setting": "[5]; entire study group", "value": 5.7, "unit": "months"}, {"measurement": "Median progression-free survival", "setting": "[5]; entire study group", "value": 1.4, "unit": "months"}, {"measurement": "Duration complete response maintained on therapy", "setting": "[5]; one patient, Fig. 2", "value": "> 3", "unit": "y"}, {"measurement": "Dose-limiting toxicities", "setting": "[6]; human, in vivo", "value": "thrombocytopenia and prolonged QTc"}, {"measurement": "Elevated ALT, Grade 1-2", "setting": "[6]; human, in vivo", "value": "5 (23%)"}, {"measurement": "Elevated ALT, Grade 3-4", "setting": "[6]; human, in vivo", "value": 1}, {"measurement": "Elevated AST, Grade 1-2", "setting": "[6]; human, in vivo", "value": "9 (41%)"}, {"measurement": "Elevated AST, Grade 3-4", "setting": "[6]; human, in vivo", "value": 0}, {"measurement": "Hematuria, Grade 1-2", "setting": "[6]; human, in vivo", "value": 1}, {"measurement": "Hematuria, Grade 3-4", "setting": "[6]; human, in vivo", "value": 0}, {"measurement": "Hypermagnesemia, Grade 1-2", "setting": "[6]; human, in vivo", "value": 1}, {"measurement": "Hypermagnesemia, Grade 3-4", "setting": "[6]; human, in vivo", "value": 0}, {"measurement": "Intracranial hemorrhage, Grade 1-2", "setting": "[6]; human, in vivo", "value": 0}, {"measurement": "Intracranial hemorrhage, Grade 3-4", "setting": "[6]; human, in vivo", "value": 0}, {"measurement": "Nausea, Grade 1-2", "setting": "[6]; human, in vivo", "value": 1}, {"measurement": "Nausea, Grade 3-4", "setting": "[6]; human, in vivo", "value": 0}, {"measurement": "Proteinuria, Grade 1-2", "setting": "[6]; human, in vivo", "value": 1}, {"measurement": "Proteinuria, Grade 3-4", "setting": "[6]; human, in vivo", "value": 0}, {"measurement": "QTc prolongation, Grade 1-2", "setting": "[6]; human, in vivo", "value": "5 (23%)"}, {"measurement": "QTc prolongation, Grade 3-4", "setting": "[6]; human, in vivo", "value": "2 (9%) ^*"}, {"measurement": "Relationship between QTcB changes from baseline and plasma concentrations", "setting": "[6]; human, in vivo", "value": "no significant relationship"}, {"measurement": "Thrombocytopenia, Grade 1-2", "setting": "[6]; human, in vivo", "value": "6 (27%)"}, {"measurement": "Thrombocytopenia, Grade 3-4", "setting": "[6]; human, in vivo", "value": "5 (23%)"}, {"measurement": "Patients with dose limiting grade 3 thrombocytopenia", "setting": "[6]; human, in vivo, 6 wk", "value": 2}, {"measurement": "Elevated ALT, Grade 5", "setting": "[6]; number of patients, N = 22", "value": 0}, {"measurement": "Elevated AST, Grade 5", "setting": "[6]; number of patients, N = 22", "value": 0}, {"measurement": "Hematuria, Grade 5", "setting": "[6]; number of patients, N = 22", "value": 0}, {"measurement": "Hypermagnesemia, Grade 5", "setting": "[6]; number of patients, N = 22", "value": 0}, {"measurement": "Nausea, Grade 5", "setting": "[6]; number of patients, N = 22", "value": 0}, {"measurement": "Proteinuria, Grade 5", "setting": "[6]; number of patients, N = 22", "value": 0}, {"measurement": "QTc prolongation, Grade 5", "setting": "[6]; number of patients, N = 22", "value": 0}, {"measurement": "Thrombocytopenia, Grade 5", "setting": "[6]; number of patients, N = 22", "value": 0}, {"measurement": "Intracranial hemorrhage, Grade 5", "setting": "[6]; number of patients, N = 22, in the setting of grade 3 thrombocytopenia", "value": "1 ^†"}, {"measurement": "Cav,ss", "setting": "[7]; DL 1, 800 mg daily, n = 12", "value": "1,130 (89) nmol/L"}, {"measurement": "Cav,ss", "setting": "[7]; DL-1, 250 mg twice daily, n = 3", "value": "1,040 (124) nmol/L"}, {"measurement": "Cav,ss", "setting": "[7]; DL-1, 500 mg daily, n = 5", "value": "472 (109) nmol/L"}, {"measurement": "Cmax", "setting": "[7]; 250 mg", "value": 1390, "unit": "nM"}, {"measurement": "Tmax", "setting": "[7]; 250 mg", "value": 6.03, "unit": "h"}, {"measurement": "Cmax", "setting": "[7]; 400 mg", "value": 2710, "unit": "nM"}, {"measurement": "Tmax", "setting": "[7]; 400 mg", "value": 4.03, "unit": "h"}, {"measurement": "Cmax", "setting": "[7]; 500 mg", "value": 979, "unit": "nM"}, {"measurement": "Tmax", "setting": "[7]; 500 mg", "value": 2.08, "unit": "h"}, {"measurement": "Tmax", "setting": "[7]; 800 mg", "value": 4, "unit": "h"}]}]}
